Measurements: US11236357B2, “Methods of obtaining androecious cucurbit plants” (INSTITUT NATIONAL DE LA RECHERCHE AGRONOMIQUE (INRA), priority 2012, dated 2022)

How the values were obtained:
[1] = test system: monoecious melon plants; settings: monoecious plants treated by ethrel; prior art; cited from earlier work
[2] = test system: androecious plants (cucurbitaceae); assay: Induction of female flowers in androecious plants by ethrel; assay type: in vivo; settings: androecious plants treated with ethrel
Excerpt: The inventors wished to study the transmission of the androecious phenotype from one generation to the other. However, due to the nature of the plants, it is obviously impossible to fecundate an androecious plant with itself or another androecious plant.
The inventors have then treated the plants with ethrel, a growth regulator known for inducing female flowers in cucurbitaceae. […] The seeds derived from this fruit have been planted to produce plants which phenotype is androecious: the androecious phenotype of the present invention is thus heritable.

[3] = biological target: Cucumis melo ACS8 variant Cmacs8_L45F (L45→F), SEQ ID No 15 (Cucumis melo, UniProt A0A0S2C3P7, L45F); assay type: biochemical; settings: PLP 5 μm; pH 8.5, 25° C.
Procedure: (§1) Dosing the Transforming Activity of Methionine S-adenosyl into Aminocyclopropane Carboxylate by the 1-aminocyclopropane-1-carboxylate Synthase 8 (ACS8)
(§2) The enzymatic activity of the ACS8 is measured in vitro by following, by 265-nm spectrophotometry, the formation of 5′-methylthioadenosine (MTA) after involving methionine S-adenosyl, deaminase and different PLP concentrations (pyridoxal 5′-phosphate).
The bacterial strain Escherichia coli BL21(DE3)pLYSS is used for the expression of the enzyme. The cloning vector used is the plasmid pET15b (NOVAGEN) which carries the promoter T7 and comprises resistance to ampicillin. S-adenosyl Methionine (SAM), Pyridoxal 5′phosphate (PLP) and 5′Adenylic Acid Deaminase of Aspergillus (deaminase) are available from the SIGMA company. […]
Due to the presence of a Histidine tag associated with each of the ACS8, the latter are purified by using a nickel column (Ni-IDA 15 ml) previously balanced with TRIS at PH8 and NaCl (500 mM). After passing the solution containing recombinant ACS8 to be purified, the column is then washed with TRIS at PH8 (50 mM) and NaCl (500 mM) added with imidazole (10 mM) until no protein can be detected at the output any longer. […]

[4] = biological target: T1, Cucumis sativus ACS8 (1-aminocyclopropane-1-carboxylate synthase 8), CsACS8, wild, SEQ ID No 3 (Cucumis sativus, UniProt A0A0A0LKW1); assay: Transforming activity of methionine S-adenosyl into aminocyclopropane carboxylate (MTA formation at 265 nm); assay type: biochemical; settings: pH 8.5, 25° C.
T1 construct: N-terminus MASLSSKASHDSHGQNSS
T1 sequence (A0A0A0LKW1 1-440): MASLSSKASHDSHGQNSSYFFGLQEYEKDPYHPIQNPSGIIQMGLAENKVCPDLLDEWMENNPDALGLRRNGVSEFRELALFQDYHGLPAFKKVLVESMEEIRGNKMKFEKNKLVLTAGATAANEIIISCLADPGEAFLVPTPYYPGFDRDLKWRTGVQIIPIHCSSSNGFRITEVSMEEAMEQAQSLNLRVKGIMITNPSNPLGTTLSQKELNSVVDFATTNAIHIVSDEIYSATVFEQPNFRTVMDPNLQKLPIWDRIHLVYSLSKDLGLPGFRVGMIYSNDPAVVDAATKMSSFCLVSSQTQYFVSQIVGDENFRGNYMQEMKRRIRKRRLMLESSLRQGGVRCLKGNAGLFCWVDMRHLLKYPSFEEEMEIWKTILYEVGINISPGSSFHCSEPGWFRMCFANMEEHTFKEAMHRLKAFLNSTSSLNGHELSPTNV
Procedure: as §1, §2
(§3) The bacterial strain Escherichia coli BL21(DE3)pLYSS is used for the expression of the enzyme. The cloning vector used is the plasmid pET15b (NOVAGEN) which carries the promoter T7 and comprises resistance to ampicillin. S-adenosyl Methionine (SAM), Pyridoxal 5′phosphate (PLP) and 5′Adenylic Acid Deaminase of Aspergillus (deaminase) are available from the SIGMA company.
(§4) These bacteria Escherichia coli BL21(DE3)pLYSS transformed with the construct carrying the 1-aminocyclopropane-1-carboxylate synthase 8 (ACS8) are incubated in 25 ml LURIA-BERTANI medium (tryptone 10 g/L, yeast extract 5 g/L, NaCl 10 g/L) added with ampicillin and chloramphenicol (50 μg/ml each) overnight at 37° C. This pre-culture is used to inoculate 2 litres of the same medium added with ampicillin (50 μg/ml) and the cells are cultivated at 37° C. in a stirred incubator (180 rpm) up to 0.6 Optical Density (DO=600 nm). IPTG is added (0.5 mM) so as to induce the protein expression during a new 5-hour culture phase at 25° C. Cells are centrifuged and kept overnight at −45° C. Cells are then re-suspended in 15 ml TrisNaCl (50 mM, pH7.9, 500 mM, respectively) then subjected to ice sonication in the presence of a protease inhibitor (phenylmethanesulfonyl fluoride), leupeptin, pepstatin and aprotinin, 10 μg/ml each). The cellular debris are removed during a new centrifugation step at 13,000 g during 15 minutes and the supernatant is immediately used for enzymatic purification.
(§5) Due to the presence of a Histidine tag associated with each of the ACS8, the latter are purified by using a nickel column (Ni-IDA 15 ml) previously balanced with TRIS at PH8 and NaCl (500 mM). After passing the solution containing recombinant ACS8 to be purified, the column is then washed with TRIS at PH8 (50 mM) and NaCl (500 mM) added with imidazole (10 mM) until no protein can be detected at the output any longer. The ACS8 are then eluted with the same buffer solution added with imidazole at 100 mM, then dialysed (KPhos 50 mM á PH8.5) before concentration (MILLIPORE AMICON ULTRA DEVICE, 5000 MWC0). The concentrated fraction (20 mg/ml) of ACS8 is aliquoted and stored with glycerol at −45° C. The purification of protein is followed by capillary electrophoresis (EXPERION DEVICE—BIO RAD) with a PRO260 chip.

[5] = biological target: Cucumis melo ACS8 (1-aminocyclopropane-1-carboxylate synthase 8), CmACS8, wild, SEQ ID No 12 (Cucumis melo, UniProt A0A0S2C3P7); assay: as above; assay type: biochemical; settings: pH 8.5, 25° C.
Procedure: as §1, §2, §3, §4, §5

[6] = biological target: Cucumis melo ACS8 variant Cmacs8_S295F (S295→F), SEQ ID No 18 (Cucumis melo, UniProt A0A0S2C3P7, S295F); assay: as above; assay type: biochemical; settings: pH 8.5, 25° C.
Procedure: as §1, §2, §3, §4, §5

[7] = biological target: Cucumis melo ACS8 variant Cmacs8_G72E (G72E), SEQ ID not listed (Cucumis melo, UniProt A0A0S2C3P7, G72E); assay: as above; assay type: biochemical; settings: pH 8.5, 25° C.
Procedure: as §1, §2, §3, §4, §5

Cucumis melo ACS8 (1-aminocyclopropane-1-carboxylate synthase 8), CmACS8, wild, SEQ ID No 12, sequence (A0A0S2C3P7 1-440): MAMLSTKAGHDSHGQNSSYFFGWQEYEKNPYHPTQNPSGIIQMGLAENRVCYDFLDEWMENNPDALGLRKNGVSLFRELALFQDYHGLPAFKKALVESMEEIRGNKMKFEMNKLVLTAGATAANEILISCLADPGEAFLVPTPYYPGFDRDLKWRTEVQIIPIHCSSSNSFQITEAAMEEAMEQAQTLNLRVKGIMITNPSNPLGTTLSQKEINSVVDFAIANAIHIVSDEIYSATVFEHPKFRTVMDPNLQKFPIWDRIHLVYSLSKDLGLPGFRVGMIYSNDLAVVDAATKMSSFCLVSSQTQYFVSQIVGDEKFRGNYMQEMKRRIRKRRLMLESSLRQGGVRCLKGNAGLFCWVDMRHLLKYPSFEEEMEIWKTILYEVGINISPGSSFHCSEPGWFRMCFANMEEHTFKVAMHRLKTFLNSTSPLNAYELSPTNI
Cucumis melo ACS8 variant Cmacs8_G72E (G72E), SEQ ID not listed, sequence (A0A0S2C3P7 entry or part of it G72E): as the sequence (A0A0S2C3P7 1-440) above, with G72E counted along it
Cucumis melo ACS8 variant Cmacs8_S295F (S295→F), SEQ ID No 18, sequence (A0A0S2C3P7 entry or part of it S295F): as the sequence (A0A0S2C3P7 1-440) above, with S295F counted along it
Cucumis melo ACS8 variant Cmacs8_L45F (L45→F), SEQ ID No 15, sequence (A0A0S2C3P7 entry or part of it L45F): as the sequence (A0A0S2C3P7 1-440) above, with L45F counted along it

| SMILES | effect on male flowers [1] | production of female flowers after treatment [2] | Km [3] [µM] | Km ([4]; PLP 5 μm) [µM] | Km ([4]; PLP 100 μm) [µM] | Km ([5]; PLP 5 μm) [µM] | Km ([5]; PLP 100 μm) [µM] | Km ([6]; PLP 5 μm) [µM] | Km ([6]; PLP 100 μm) [µM] | Km ([7]; PLP 5 μm) [µM] | Km ([7]; PLP 100 μm) [µM] |
| --- | --- | --- | --- | --- | --- | --- | --- | --- | --- | --- | --- |
| O=P(O)(O)CCCl [ethrel] | temporary disappearance of male flowers | briefly produced female flowers | – | – | – | – | – | – | – | – | – |
| C[S+](CC[C@H](N)C(=O)[O-])C[C@H]1O[C@@H](n2cnc3c(N)ncnc32)[C@H](O)[C@@H]1O (some centres unmarked) [S-adenosyl Methionine] | – | – | 23 ± 4 | 20 ± 6 | 25 ± 6 | 20 ± 5 | 20 ± 5 | 16 ± 5 | 15 ± 5 | 17 ± 5 | 15 ± 5 |
